Measured values as given in patent US20040006120A1, “Use of histamine h3 receptor inverse agonists for the control of appetite and treatment of obesity” (priority 2003, published 2004).
Marks after values point to notes of the source that are not given here.

Experiments:
[1] = system: food consumption by adult Sprague-Dawley rats; experiment: Food intake by adult Sprague-Dawley rats; assay type: in vivo, rat; settings: for Decrease in Food Intake (%): two hours following the onset of the dark cycle
Method: The compounds summarized in Table 3 were examined for their ability to suppress food consumption by adult Sprague-Dawley rats. Male Sprague Dawley rats were purchased from Harlan Laboratories of Indianapolis, Ind. Rats were housed one per cage and maintained on a 12 hour light/dark schedule (lights-out at 12:30 p.m.) with ad libitum access to powdered Teklad Mouse/Rat Diet 7012 (available from Harlan Laboratories of Indianapolis, Ind.) and water. Rats were acclimated to laboratory conditions and food for 1 to 2 weeks prior to initiating food intake studies. On the day of experiments, test compounds were solubilized or suspended in vehicle/carrier and administered to rats (i.p. or p.o.) 30 to 60 minutes prior to the onset of the dark cycle. Food intake was determined at 1, 2, 4, and 24 hours following the onset of the dark cycle. Alternatively, rats were fasted (water provided) for 24 hours prior to evaluating the effects of compounds on food intake. For these studies, compounds or vehicle/carrier were administered and rats were placed in standard small animal metabolism chambers with ad libitum access to powdered Teklad Mouse/Rat Diet 7012 and water. Food intake was determined at 2 and 4 hours following the onset of feeding.
Data is cumulative food intake in grams, mean ± sem. In the table, * indicates a significant decrease in food intake compared to the vehicle-treated rats (t-test, p<0.05).
(§1) The percent reduction in food intake by rats two hours after intraperitoneal administration of each compound is shown in Table 5. […] In Table 5, * indicates a significant decrease in food intake compared to the vehicle-treated rats (t-test, p<0.05). The ex vivo binding values in Table 5 represent the drug dose required to obtain ½-maximal H3 receptor occupancy in the brain following intraperitoneal administration. The dose values shown in Table 5 represent the dosage of drug utilized during the food intake studies. In all cases, the tested dose exceeded the amount needed to obtain ½-maximal H3 receptor occupancy in the brain.

[2] = molecular target: T1, H3 receptor occupancy in the brain (Rattus norvegicus, UniProt Q9QYN8); experiment: Ex vivo binding: H3 receptor occupancy in the brain after intraperitoneal administration; settings: following intraperitoneal administration
T1 construct: H3 receptor occupancy in the brain following intraperitoneal administration; from tissue
T1 sequence (Q9QYN8 whole entry): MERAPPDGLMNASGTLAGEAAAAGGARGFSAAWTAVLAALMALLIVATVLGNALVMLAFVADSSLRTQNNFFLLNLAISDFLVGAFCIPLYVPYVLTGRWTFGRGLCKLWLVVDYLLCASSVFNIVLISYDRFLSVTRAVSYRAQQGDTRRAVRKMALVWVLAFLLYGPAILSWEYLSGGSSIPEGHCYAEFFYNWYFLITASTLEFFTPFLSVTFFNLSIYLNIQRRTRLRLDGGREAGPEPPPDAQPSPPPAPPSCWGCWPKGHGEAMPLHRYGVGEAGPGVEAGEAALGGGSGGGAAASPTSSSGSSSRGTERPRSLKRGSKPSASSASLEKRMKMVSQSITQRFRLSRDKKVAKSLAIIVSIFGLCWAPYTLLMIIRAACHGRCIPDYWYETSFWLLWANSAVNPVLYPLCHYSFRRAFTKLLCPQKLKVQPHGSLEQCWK
Description: as §1

Histamine H3 receptor = molecular target: T2, Histamine H3 receptor (Rattus norvegicus, UniProt Q9QYN8); experiment: Histamine H3 receptor binding in rat cerebral cortical membranes with [3H]-Nα-methylhistamine, with and without GTPγS; settings: in words
T2 construct: The cerebral cortical tissues were harvested and frozen on dry ice; from tissue; host or cells: cerebral cortex of male Sprague-Dawley rats (membrane preparation)
T2 sequence (Q9QYN8 whole entry): as above

| SMILES | Ex Vivo Binding: drug dose required to obtain ½-maximal H3 receptor occupancy in the brain [2] | Decrease in Food Intake (%) ([1]; Dose 10, intraperitoneal) | other results |
| --- | --- | --- | --- |
| Fc1ccc(C(OCCCc2c[nH]cn2)c2ccc(F)cc2)cc1 [Compound 8, 3-(1H-imidazol-4-yl)propyl-di(p-fluorophenyl)-methylether] | 5.6 ± 0.12 mg/kg | 56.6 ± 8.3* % |  |
| CC(C)(C)CCC#C[C@@H]1C[C@H]1c1c[nH]cn1 [Compound 6, (1R,2R)-trans-4-(2-(5,5-dimethylhex-1-ynyl)cyclopropyl)imidazole] | 0.08 ± 0.03 mg/kg |  | Decrease in Food Intake (%) ([1]; Dose 1, intraperitoneal): −4.6 ± 0.8% |
| CC(C)(C)CCOC(=O)N[C@@H]1C[C@H]1c1c[nH]cn1 [Compound 9, 4-((1R,2R)-trans-2-(O-(3,3-dimethyl-but-1-yl)carboxamido)cyclopropyl)imidazole] | 3.7 ± 0.4 mg/kg | −25.1 ± 3.8% |  |
| O=C(N[C@@H]1C[C@H]1c1c[nH]cn1)OCCC1CCCCC1 [Compound 1, 4-((1R,2R)-trans-2-(O(2-cyclohexylethyl)carboxamido)cyclopropyl)imidazole] | 31 ± 1.3 mg/kg | 32.6 ± 4.3* % |  |
| O=C(N[C@@H]1C[C@H]1c1c[nH]cn1)OCc1c(Cl)cccc1Cl [Compound 7, 4-((1R,2R)-trans-2-(O-(2,6-dichlorophenylmethyl)carboxamido)cyclopropyl)imidazole] | 2.9 ± 1.3 mg/kg | 0.8 ± 0.0% |  |
| O=C(N[C@@H]1C[C@H]1c1c[nH]cn1)OCC1CCCCC1 [Compound 3, 4-((1R,2R)-trans-2-(O-(2-cyclohexylmethyl)carboxamido)cyclopropyl)imidazole] | 2.6 ± 1.3 mg/kg | 36.4 ± 3.3* % | duration of significant reduction of food consumption ([1]; single administration, 10 mg/kg i.p.): up to 24 hours |

Continued, in another order:

| Ex Vivo Binding: drug dose required to obtain ½-maximal H3 receptor occupancy in the brain [2] | SMILES | Decrease in Food Intake (%) ([1]; Dose 10, intraperitoneal) | other results |
| --- | --- | --- | --- |
| 8.0 ± 1.3 mg/kg | O=C(CCCCC1CCCCC1)N1CCC(c2c[nH]cn2)CC1 [Compound 5, 4-(N-(5-cyclohexylpentan-1-one-1-yl)piperidin-4-yl)imidazole] | 67.6 ± 9.6* % |  |
| 0.92 ± 0.01 mg/kg | C(=C/CCC1CCCCC1)/CCc1c[nH]cn1 [Compound 2, (3Z)-4-(6-cyclohexylhex-3-en-1-yl)imidazole] |  | Decrease in Food Intake (%) ([1]; Dose 3, intraperitoneal): 5.5 ± 0.8%; binding to GTPγS-treated cortical membrane preparation compared with non-treated preparation (Histamine H3 receptor): relatively little difference |
| ˜15 mg/kg | N[C@H](/C=C\CCc1c[nH]cn1)CC1CCCCC1 [Compound 4, 4-(((5S)(3Z)-5-amino-6-cyclohexyl)hex-3-en-1-yl)imidazole] |  | Decrease in Food Intake (%) ([1]; Dose 20, intraperitoneal): 53.9 ± 11.1* % |
